Literature values in patent US20090298708A1, “2'-DEOXY-2'-FLUORO-BETA-D-ARABINONUCLEOSIDE 5'-TRIPHOSPHATES AND THEIR USE IN ENZYMATIC NUCLEIC ACID SYNTHESIS” (priority 2006, published 2009).

Target: T1, DNA pol-γ (Homo sapiens, UniProt P54098)
T1 sequence (P54098 1-1239): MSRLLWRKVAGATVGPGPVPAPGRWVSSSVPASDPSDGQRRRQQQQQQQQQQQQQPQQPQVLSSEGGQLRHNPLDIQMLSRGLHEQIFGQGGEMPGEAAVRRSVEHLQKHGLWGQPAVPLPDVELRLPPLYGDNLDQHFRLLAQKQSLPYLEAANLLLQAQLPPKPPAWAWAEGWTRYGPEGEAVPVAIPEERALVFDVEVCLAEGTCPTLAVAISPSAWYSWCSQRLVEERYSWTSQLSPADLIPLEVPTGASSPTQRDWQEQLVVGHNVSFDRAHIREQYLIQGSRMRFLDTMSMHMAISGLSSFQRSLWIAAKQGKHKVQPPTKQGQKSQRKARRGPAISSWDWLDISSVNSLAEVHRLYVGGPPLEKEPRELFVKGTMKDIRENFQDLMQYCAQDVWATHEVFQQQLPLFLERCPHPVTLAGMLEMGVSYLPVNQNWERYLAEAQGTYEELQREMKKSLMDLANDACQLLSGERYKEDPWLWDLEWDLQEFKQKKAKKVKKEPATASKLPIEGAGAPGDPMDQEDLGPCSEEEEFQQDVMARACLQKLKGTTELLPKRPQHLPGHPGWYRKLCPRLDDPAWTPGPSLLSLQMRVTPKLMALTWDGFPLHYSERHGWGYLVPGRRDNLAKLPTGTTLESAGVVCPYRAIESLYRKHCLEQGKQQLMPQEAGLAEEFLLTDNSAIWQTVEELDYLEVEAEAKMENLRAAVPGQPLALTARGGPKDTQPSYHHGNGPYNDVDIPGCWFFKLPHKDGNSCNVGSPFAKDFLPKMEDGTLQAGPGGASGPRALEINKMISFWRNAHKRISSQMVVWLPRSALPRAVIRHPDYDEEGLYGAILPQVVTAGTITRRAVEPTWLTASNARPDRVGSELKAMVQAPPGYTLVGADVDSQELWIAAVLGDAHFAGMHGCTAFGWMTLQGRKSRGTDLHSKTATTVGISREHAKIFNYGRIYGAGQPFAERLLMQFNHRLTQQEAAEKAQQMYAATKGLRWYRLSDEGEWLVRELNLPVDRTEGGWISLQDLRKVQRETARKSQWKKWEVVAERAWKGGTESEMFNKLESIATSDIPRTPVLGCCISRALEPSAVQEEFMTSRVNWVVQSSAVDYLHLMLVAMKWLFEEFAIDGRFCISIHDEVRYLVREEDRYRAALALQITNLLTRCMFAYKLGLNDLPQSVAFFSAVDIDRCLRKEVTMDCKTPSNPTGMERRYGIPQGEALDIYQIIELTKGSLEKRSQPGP
Conditions: Lewis W. et al. (1994) Biochemistry, 33, 14620-14624; read-out: inhibition constant (Ki) with DNA pol-γ; cited from earlier work

For `O=c1[nH]c(=O)n(C2OC(COP(=O)(O)OP(=O)(O)OP(=O)(O)O)C(O)C2F)cc1I` (stereo not shown) [FIAU 5′-TP], the Ki is given as 40 nM.
